Data published in patent US20090304692A1, “TRIAZINE COMPOUNDS AS PI3 KINASE AND MTOR INHIBITORS” (Wyeth, priority 2008, published 2009).
Values joined by “and” are separate entries in the source; they are usually repeats but may differ in a detail not shown here. Equal entries are not always repeated. Structures can show the parent of a compound that is named as a salt. Where two headings read alike, the source gives them in different places.

Assays:
[1] = system: human prostate PC3-mm2 tumor cell line; assay: In vitro cell culture growth assay (MTS), PC3-mm2; assay type: cell-based; conditions: Homo sapiens, PC3MM2, 72 h
PI3K-γ = PI3K-γ (Homo sapiens, UniProt P48736); assay: PI3K-gamma fluorescence polarization assay; conditions: read-out: IC50 PI3Kγ
[2] = system: human breast MDA-MB-361 tumor cell line; assay: In vitro cell culture growth assay (MTS), MDA-MB-361; assay type: cell-based; conditions: Homo sapiens, MDA-MB-361, 72 h
PI3K-α = PI3K-α (Homo sapiens, UniProt P42336); assay: PI3K-alpha fluorescence polarization assay; conditions: read-out: IC50 PI3Kα
Human mTOR (FLAG-TOR) = Human mTOR (FLAG-TOR) (Homo sapiens, UniProt P42345); assay: mTOR kinase assay (DELFIA format, purified enzyme); assay type: biochemical
[3] = MTS cell growth assay, three days after drug treatment, PC3-mm2 cells, read-out: IC50 PC3-mm2
[4] = MTS cell growth assay, three days after drug treatment, read-out: IC50 PC3-mm2
[5] = MTS cell growth assay, three days after drug treatment, MDA-MB-361 cells, read-out: IC50 MDA-MB-361
[6] = MTS cell growth assay, three days after drug treatment, read-out: IC50 MDA-MB-361
[7] = read-out: IC50 PC3-mm2, MTS cell growth assay, three days after drug treatment
[8] = read-out: IC50 MDA-MB-361, MTS cell growth assay, three days after drug treatment

Sequence of PI3K-γ (P48736 whole entry, species assumed): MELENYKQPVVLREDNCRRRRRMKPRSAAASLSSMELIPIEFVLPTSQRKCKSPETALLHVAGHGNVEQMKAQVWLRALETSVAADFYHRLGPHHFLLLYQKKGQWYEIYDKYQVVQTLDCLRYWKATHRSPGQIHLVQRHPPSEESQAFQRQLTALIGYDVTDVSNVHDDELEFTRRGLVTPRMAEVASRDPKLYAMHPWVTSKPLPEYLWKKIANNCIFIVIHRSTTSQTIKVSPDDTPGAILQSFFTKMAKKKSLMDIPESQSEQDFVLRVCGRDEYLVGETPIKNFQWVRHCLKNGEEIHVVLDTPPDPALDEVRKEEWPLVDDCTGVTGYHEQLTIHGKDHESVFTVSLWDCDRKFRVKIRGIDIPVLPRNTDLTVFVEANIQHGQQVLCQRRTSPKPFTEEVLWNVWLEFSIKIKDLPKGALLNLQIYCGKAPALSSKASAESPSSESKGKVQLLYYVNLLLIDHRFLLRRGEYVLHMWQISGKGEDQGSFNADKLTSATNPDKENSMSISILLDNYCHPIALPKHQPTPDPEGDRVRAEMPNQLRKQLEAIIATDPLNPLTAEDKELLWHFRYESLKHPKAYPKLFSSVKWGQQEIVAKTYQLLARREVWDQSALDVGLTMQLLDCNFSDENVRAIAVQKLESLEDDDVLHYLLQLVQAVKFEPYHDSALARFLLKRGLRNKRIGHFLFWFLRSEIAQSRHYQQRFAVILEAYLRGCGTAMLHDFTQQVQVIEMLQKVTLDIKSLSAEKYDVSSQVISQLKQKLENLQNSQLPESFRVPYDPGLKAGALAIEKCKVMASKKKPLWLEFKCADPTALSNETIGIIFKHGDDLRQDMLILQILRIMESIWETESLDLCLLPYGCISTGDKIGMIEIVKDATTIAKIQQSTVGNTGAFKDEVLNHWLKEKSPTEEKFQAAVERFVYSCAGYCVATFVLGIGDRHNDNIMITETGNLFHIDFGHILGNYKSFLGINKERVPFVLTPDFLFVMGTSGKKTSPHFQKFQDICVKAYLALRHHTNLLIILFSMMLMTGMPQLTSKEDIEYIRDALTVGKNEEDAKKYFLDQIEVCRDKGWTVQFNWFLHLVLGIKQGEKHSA
Sequence of PI3K-α (P42336 whole entry, species assumed): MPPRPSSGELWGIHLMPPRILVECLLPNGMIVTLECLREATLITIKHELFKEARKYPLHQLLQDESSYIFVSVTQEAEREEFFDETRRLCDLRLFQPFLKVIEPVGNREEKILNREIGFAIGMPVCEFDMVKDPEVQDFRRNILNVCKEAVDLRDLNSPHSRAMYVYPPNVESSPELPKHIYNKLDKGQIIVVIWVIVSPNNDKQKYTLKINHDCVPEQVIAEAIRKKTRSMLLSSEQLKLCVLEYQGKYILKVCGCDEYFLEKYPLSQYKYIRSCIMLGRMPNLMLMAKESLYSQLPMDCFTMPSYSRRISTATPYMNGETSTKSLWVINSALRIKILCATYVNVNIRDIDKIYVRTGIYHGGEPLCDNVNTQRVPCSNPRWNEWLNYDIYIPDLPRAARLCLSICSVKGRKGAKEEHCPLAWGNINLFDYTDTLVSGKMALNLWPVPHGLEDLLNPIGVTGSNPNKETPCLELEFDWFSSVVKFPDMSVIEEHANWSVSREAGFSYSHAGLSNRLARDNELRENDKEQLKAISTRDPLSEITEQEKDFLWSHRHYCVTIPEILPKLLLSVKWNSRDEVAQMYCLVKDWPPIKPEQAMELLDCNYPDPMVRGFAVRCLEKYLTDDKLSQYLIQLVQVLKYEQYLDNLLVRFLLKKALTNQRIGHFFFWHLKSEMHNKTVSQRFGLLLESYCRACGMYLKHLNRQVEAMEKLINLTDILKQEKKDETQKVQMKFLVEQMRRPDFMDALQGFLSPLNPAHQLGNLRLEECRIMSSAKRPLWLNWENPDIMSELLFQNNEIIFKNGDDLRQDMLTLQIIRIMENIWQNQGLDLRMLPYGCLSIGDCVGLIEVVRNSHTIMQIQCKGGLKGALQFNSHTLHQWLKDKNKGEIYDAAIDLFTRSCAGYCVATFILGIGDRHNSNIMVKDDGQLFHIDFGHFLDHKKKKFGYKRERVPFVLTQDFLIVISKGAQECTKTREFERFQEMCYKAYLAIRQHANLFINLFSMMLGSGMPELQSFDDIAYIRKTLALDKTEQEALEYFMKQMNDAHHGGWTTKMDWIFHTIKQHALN
Sequence of PI3K-α (P27986 whole entry partner, species assumed): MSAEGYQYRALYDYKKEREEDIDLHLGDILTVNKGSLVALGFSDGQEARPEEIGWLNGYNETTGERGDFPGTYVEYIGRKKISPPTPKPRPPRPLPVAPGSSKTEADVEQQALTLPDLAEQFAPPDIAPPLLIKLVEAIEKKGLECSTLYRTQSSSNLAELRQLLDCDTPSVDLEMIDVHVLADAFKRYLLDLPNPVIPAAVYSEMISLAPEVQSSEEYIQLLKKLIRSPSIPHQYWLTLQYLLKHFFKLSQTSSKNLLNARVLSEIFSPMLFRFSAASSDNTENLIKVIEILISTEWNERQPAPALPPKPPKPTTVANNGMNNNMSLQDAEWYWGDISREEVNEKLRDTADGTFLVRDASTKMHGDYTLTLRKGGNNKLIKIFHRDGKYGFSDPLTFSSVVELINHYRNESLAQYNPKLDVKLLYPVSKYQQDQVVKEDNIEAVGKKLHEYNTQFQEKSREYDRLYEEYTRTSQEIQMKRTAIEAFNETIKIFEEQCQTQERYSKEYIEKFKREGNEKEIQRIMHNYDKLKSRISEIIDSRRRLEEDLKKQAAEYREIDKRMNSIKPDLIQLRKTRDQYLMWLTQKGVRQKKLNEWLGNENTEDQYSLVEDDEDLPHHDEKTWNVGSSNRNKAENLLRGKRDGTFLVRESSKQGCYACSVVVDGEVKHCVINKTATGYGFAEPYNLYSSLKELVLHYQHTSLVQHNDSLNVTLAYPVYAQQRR
Sequence of Human mTOR (FLAG-TOR) (P42345 1360-2549 limits assumed): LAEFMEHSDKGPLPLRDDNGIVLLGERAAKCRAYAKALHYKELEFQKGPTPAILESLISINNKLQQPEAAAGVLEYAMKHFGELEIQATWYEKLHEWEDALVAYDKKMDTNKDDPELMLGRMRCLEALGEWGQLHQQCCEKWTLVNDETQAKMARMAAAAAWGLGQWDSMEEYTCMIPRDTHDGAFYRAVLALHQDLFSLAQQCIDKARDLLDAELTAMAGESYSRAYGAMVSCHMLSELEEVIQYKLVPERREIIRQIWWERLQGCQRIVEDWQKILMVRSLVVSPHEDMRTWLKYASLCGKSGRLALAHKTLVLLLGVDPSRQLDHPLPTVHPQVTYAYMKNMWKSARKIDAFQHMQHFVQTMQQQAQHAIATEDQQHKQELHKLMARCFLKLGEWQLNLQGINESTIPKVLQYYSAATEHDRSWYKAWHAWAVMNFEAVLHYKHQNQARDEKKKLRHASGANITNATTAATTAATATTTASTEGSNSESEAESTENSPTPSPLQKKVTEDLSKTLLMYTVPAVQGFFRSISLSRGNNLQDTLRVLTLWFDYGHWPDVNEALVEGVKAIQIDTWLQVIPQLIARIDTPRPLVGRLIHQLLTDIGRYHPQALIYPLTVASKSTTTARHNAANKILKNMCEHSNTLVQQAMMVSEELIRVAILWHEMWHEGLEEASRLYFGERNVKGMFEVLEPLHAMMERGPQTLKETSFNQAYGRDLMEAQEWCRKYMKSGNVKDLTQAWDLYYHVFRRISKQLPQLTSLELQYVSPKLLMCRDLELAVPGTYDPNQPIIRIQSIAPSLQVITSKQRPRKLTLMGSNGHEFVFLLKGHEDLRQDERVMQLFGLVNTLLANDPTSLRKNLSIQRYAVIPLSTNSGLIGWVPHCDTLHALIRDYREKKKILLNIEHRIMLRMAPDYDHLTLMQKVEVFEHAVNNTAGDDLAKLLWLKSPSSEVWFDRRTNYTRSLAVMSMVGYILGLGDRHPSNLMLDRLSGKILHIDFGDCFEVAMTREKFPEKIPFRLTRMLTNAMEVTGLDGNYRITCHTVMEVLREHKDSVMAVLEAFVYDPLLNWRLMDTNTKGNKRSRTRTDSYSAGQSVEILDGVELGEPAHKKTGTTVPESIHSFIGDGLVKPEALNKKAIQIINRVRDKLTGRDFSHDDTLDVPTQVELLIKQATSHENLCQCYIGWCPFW

Row | Compound | IC50 [1, 4] | IC50 (PI3K-γ) | IC50 [2, 6] | IC50 (PI3K-α) | IC50 (Human mTOR (FLAG-TOR); read-out: IC50 mTOR) | other results
1 | Cc1ccc(NC(=O)Nc2ccc(-c3nc(N4CCOCC4)nc(N4C5CCC4COC5)n3)cc2)cc1 [Example 41, 1-(4-methylphenyl)-3-{4-[4-morpholin-4-yl-6-(3-oxa-8-azabicyclo[3.2.1]oct-8-yl)-1,3,5-triazin-2-yl]phenyl}urea] | 301 nM | 122 nM | 167 nM | 69 nM | 1.3 nM | IC50 [1, 3]: 301 nM; IC50 [2, 5]: 167 nM; IC50 (PI3K-α; listed as 676): 69.5 nM
2 | N#Cc1ccc(NC(=O)Nc2ccc(-c3nc(N4CCOCC4)nc(N4C5CCC4COC5)n3)cc2)cc1 [Example 42, 1-(4-cyanophenyl)-3-{4-[4-morpholin-4-yl-6-(3-oxa-8-azabicyclo[3.2.1]oct-8-yl)-1,3,5-triazin-2-yl]phenyl}urea] | 3600 nM | 290 nM | 345 nM | 86 nM | 3.35 nM | IC50 [1, 3]: 3600 nM; IC50 (PI3K-α; listed as 677): 86.5 nM
3 | CN1CCN(c2ccc(NC(=O)Nc3ccc(-c4nc(N5CCOCC5)nc(N5C6CCC5COC6)n4)cc3)cc2)CC1 [Example 43, 1-[4-(4-methylpiperazin-1-yl)phenyl]-3-{4-[4-morpholin-4-yl-6-(3-oxa-8-azabicyclo[3.2.1]oct-8-yl)-1,3,5-triazin-2-yl]phenyl}urea] | 40 nM | 35 nM | 35.8 nM | 28 nM | 0.77 nM and 1.65 nM and 1.17 nM | IC50 [1, 3]: 40 nM; IC50 (PI3K-γ; listed as 229): 70 nM; IC50 (PI3K-γ; listed as 678): 45.3 nM; IC50 [2, 5]: 35.8 nM; IC50 (PI3K-α; listed as 229): 19 nM; IC50 (PI3K-α; listed as 678): 21.3 nM
4 | O=C(Nc1ccc(-c2nc(N3CCOCC3)nc(N3CC4CCC(C3)O4)n2)cc1)Nc1cccnc1 [Example 47, 1-{4-[4-morpholin-4-yl-6-(8-oxa-3-azabicyclo[3.2.1]oct-3-yl)-1,3,5-triazin-2-yl]phenyl}-3-pyridin-3-ylurea] | 95 nM | 52 nM | 116 nM | 13 nM | 1.6 nM | 
5 | Cc1cc(NC(=O)Nc2ccc(-c3nc(N4CCOCC4)nc(N4CCOCC4)n3)cc2)ccn1 [Example 49, 1-[4-(4,6-dimorpholin-4-yl-1,3,5-triazin-2-yl)phenyl]-3-(2-methylpyridin-4-yl)urea] | 79 nM | 21 nM | 84 nM | 3 nM | 10 nM and 8.9 nM | 
6 | O=C(Nc1ccc(CCO)cc1)Nc1ccc(-c2nc(N3CCOCC3)nc(N3CCOCC3)n2)cc1 [Example 50, 1-[4-(4,6-dimorpholin-4-yl-1,3,5-triazin-2-yl)phenyl]-3-[4-(2-hydroxyethyl)phenyl]urea] |  | 21 nM |  | 1 nM | 2 nM | IC50 [1, 7]: 39 nM; IC50 [2, 8]: 36 nM
7 | O=C(Nc1ccc(CO)cc1)Nc1ccc(-c2nc(N3CCOCC3)nc(N3CCOCC3)n2)cc1 [Example 51, 1-[4-(4,6-dimorpholin-4-yl-1,3,5-triazin-2-yl)phenyl]-3-[4-(hydroxymethyl)phenyl]urea] | < 30 nM | 15 nM | < 30 nM | 1 nM | 1.9 nM | 
8 | O=C(Nc1ccc(-c2nc(N3CCOCC3)nc(N3CCOCC3)n2)cc1)Nc1ccc(C(F)(F)F)cc1 [Example 53, 1-[4-(4,6-dimorpholin-4-yl-1,3,5-triazin-2-yl)phenyl]-3-[4-(trifluoromethyl)phenyl]urea] | 987 nM | 403 nM | 662 nM | 45 nM | 24 nM and 18 nM | 
9 | O=C(Nc1ccc(O)cc1)Nc1ccc(-c2nc(N3CCOCC3)nc(N3CCOCC3)n2)cc1 [Example 54, 1-[4-(4,6-dimorpholin-4-yl-1,3,5-triazin-2-yl)phenyl]-3-(4-hydroxyphenyl)urea] | 214 nM | 88 nM | 133 nM | 10 nM | 4.75 nM | 
10 | CC(O)c1cccc(NC(=O)Nc2ccc(-c3nc(N4CCOCC4)nc(N4CCOCC4)n3)cc2)c1 (stereo not shown) [Example 57, 1-[4-(4,6-dimorpholin-4-yl-1,3,5-triazin-2-yl)phenyl]-3-[3-(1-hydroxyethyl)phenyl]urea] | 187 nM | 74 nM | 119 nM | 8 nM | 16.5 nM | 
11 | COC(=O)c1ccc(NC(=O)Nc2ccc(-c3nc(N4CCOCC4)nc(N4CCOCC4)n3)cc2)cc1 [Example 58, methyl 4-({[4-(4,6-dimorpholin-4-yl-1,3,5-triazin-2-yl)phenyl]carbamoyl}amino)benzoate] |  | 85 nM |  | 13 nM | 2.5 nM | IC50 [1, 7]: 45 nM; IC50 [2, 8]: 115 nM
12 | O=C(Nc1ccccc1)Nc1ccc(-c2nc(OC3CCOCC3)nc(N3CCOCC3)n2)cc1 [Example 60, 1-{4-[4-morpholin-4-yl-6-(tetrahydro-2H-pyran-4-yloxy)-1,3,5-triazin-2-yl]phenyl}-3-phenylurea] | 92 nM | 36 nM | 83 nM | 5 nM | 1.8 nM | 
13 | O=C(Nc1ccc(-c2nc(OC3CCOCC3)nc(N3CCOCC3)n2)cc1)Nc1cccnc1 [Example 61, 1-{4-[4-morpholin-4-yl-6-(tetrahydro-2H-pyran-4-yloxy)-1,3,5-triazin-2-yl]phenyl}-3-pyridin-3-ylurea] | 23 nM | 32 nM | 48 nM | 9 nM | 0.76 nM | 
14 | O=C(Nc1ccc(CO)cc1)Nc1ccc(-c2nc(OC3CCOCC3)nc(N3CCOCC3)n2)cc1 [Example 62, 1-[4-(hydroxymethyl)phenyl]-3-{4-[4-morpholin-4-yl-6-(tetrahydro-2H-pyran-4-yloxy)-1,3,5-triazin-2-yl]phenyl}urea] | 34 nM | 24 nM | 27 nM | 2 nM | 0.68 nM | 
15 | Cc1cc(NC(=O)Nc2ccc(-c3nc(OC4CCOCC4)nc(N4CCOCC4)n3)cc2)ccn1 [Example 63, 1-(2-methylpyridin-4-yl)-3-{4-[4-morpholin-4-yl-6-(tetrahydro-2H-pyran-4-yloxy)-1,3,5-triazin-2-yl]phenyl}urea] | 62 nM | 36 nM | 69 nM | 5 nM | 1.95 nM | 
16 | CC(=O)c1cccc(NC(=O)Nc2ccc(-c3nc(OC4CCOCC4)nc(N4CCOCC4)n3)cc2)c1 [Example 65, 1-(3-acetylphenyl)-3-{4-[4-morpholin-4-yl-6-(tetrahydro-2H-pyran-4-yloxy)-1,3,5-triazin-2-yl]phenyl}urea] | 267 nM | 83 nM | 151 nM | 15 nM | 5.05 nM | 
17 | CN(C)c1ccc(NC(=O)Nc2ccc(-c3nc(OC4CCOCC4)nc(N4CCOCC4)n3)cc2)cc1 [Example 66, 1-[4-(dimethylamino)phenyl]-3-{4-[4-morpholin-4-yl-6-(tetrahydro-2H-pyran-4-yloxy)-1,3,5-triazin-2-yl]phenyl}urea] | 66 nM | 30 nM | 59 nM | 7 nM | 1.65 nM | 
18 | O=C(Nc1ccc(C(=O)O)cc1)Nc1ccc(-c2nc(N3CCOCC3)nc(N3CCOCC3)n2)cc1 [Example 67, 4-[3-{4-(4,6-dimorpholino-1,3,5-triazin-2-yl)phenyl}ureido]benzoic acid] |  | 48 nM |  | 6 nM | 1.45 nM | IC50 [1, 7]: 28 nM; IC50 [2, 8]: 816 nM
19 | CN(C)CCNC(=O)c1ccc(NC(=O)Nc2ccc(-c3nc(N4CCOCC4)nc(N4CCOCC4)n3)cc2)cc1 [Example 68, N-(2-(dimethylamino)ethyl)-4-(3-(4-(4,6-dimorpholino-1,3,5-triazin-2-yl)phenyl)ureido)benzamide] |  | 7 nM | < 3 nM | 0.3 nM | 0.57 nM | IC50 [1, 7]: 11 nM
20 | CN1CCN(C(=O)c2ccc(NC(=O)Nc3ccc(-c4nc(N5CCOCC5)nc(N5CCOCC5)n4)cc3)cc2)CC1 [Example 69, 1-(4-(4,6-dimorpholino-1,3,5-triazin-2-yl)phenyl)-3-(4-(4-methylpiperazine-1-carbonyl)phenyl)urea hydrochloride] | 13 nM | 8 nM | 10 nM | 0.4 nM | 0.85 nM | 
21 | CN(C)CCN(C)C(=O)c1ccc(NC(=O)Nc2ccc(-c3nc(N4CCOCC4)nc(N4CCOCC4)n3)cc2)cc1 [Example 71, N-(2-(dimethylamino)ethyl)-4-(3-(4-(4,6-dimorpholino-1,3,5-triazin-2-yl)phenyl)ureido)-N-methylbenzamide hydrochloride] | 18.3 nM | 8 nM | < 9.8 nM | 0.4 nM |  | IC50 (Human mTOR (FLAG-TOR); IC50 mTOR): 0.67 nM
22 | O=C(Nc1ccc(C(=O)N2CCC(N3CCOCC3)CC2)cc1)Nc1ccc(-c2nc(N3CCOCC3)nc(N3CCOCC3)n2)cc1 [Example 72, 1-(4-(4,6-dimorpholino-1,3,5-triazin-2-yl)phenyl)-3-(4-(4-morpholinopiperidine-1-carbonyl)phenyl)urea] | 13 nM | 19 nM | 1 nM | 2 nM | 0.85 nM | 
